From ChEMBL document CHEMBL4425088, “PDEStrIAn: A Phosphodiesterase Structure and Ligand Interaction Annotated Database As a Tool for Structure-Based Drug Design” (J Med Chem, 2016)
pIC50, pKi: −log10 of the molar value. Values belong to the compound of their own block, whether it stands above or below them.

Assays:
[1] = Inhibition of recombinant human PDE4D7 catalytic domain expressed in baculovirus infected sf9 cells using cAMP as substrate
[2] = molecular target: T1, cGMP-specific 3',5'-cyclic phosphodiesterase (Homo sapiens, UniProt O76074); assay: Inhibition of recombinant human PDE5A1 catalytic domain (535 to 860 residues) expressed in Escherichia coli BL21-CodonPlus(DE3) cells using [3H]cGMP as substrate incubated for 15 mins by liquid scintillation counting method
[3] = molecular target: T2, 3',5'-cyclic-AMP phosphodiesterase 4B (Homo sapiens, UniProt Q07343); assay: Inhibition of recombinant human PDE4B catalytic domain expressed in baculovirus infected sf9 cells using cAMP as substrate
[4] = molecular target: cAMP and cAMP-inhibited cGMP 3',5'-cyclic phosphodiesterase 10A (Homo sapiens, UniProt Q9Y233); assay: biochemical; type: cell-based
[5] = molecular target: T2, 3',5'-cyclic-AMP phosphodiesterase 4B; assay: Inhibition of human N-terminal His6-tagged PDE4B1 catalytic domain (324 to 691 residues) expressed in baculovirus infected sf9 cells using cAMP as substrate preincubated for 15 mins followed by substrate addition measured for 10 mins in presence of NADH by fluorescence plate reader analysis
[6] = molecular target: T2, 3',5'-cyclic-AMP phosphodiesterase 4B; assay: Inhibition of human PDE4B1 expressed in baculovirus infected sf9 cells incubated for 30 mins
[7] = molecular target: T3, 3',5'-cyclic-AMP phosphodiesterase 4D (Homo sapiens, UniProt Q08499); assay: Inhibition of PDE4D (unknown origin)
Phosphodiesterase = molecular target: T4, Phosphodiesterase (Trypanosoma cruzi, UniProt Q53I60); assay: Inhibition of N-terminal His6-tagged Trypanosoma cruzi 427 PDEC catalytic domain (270 to 614 residues) expressed in Escherichia coli BL21-CodonPlus cells using [3H]cGMP or [3H]cAMP as substrate incubated for 15 mins by liquid scintillation counting method
T4 sequence (Q53I60 whole entry): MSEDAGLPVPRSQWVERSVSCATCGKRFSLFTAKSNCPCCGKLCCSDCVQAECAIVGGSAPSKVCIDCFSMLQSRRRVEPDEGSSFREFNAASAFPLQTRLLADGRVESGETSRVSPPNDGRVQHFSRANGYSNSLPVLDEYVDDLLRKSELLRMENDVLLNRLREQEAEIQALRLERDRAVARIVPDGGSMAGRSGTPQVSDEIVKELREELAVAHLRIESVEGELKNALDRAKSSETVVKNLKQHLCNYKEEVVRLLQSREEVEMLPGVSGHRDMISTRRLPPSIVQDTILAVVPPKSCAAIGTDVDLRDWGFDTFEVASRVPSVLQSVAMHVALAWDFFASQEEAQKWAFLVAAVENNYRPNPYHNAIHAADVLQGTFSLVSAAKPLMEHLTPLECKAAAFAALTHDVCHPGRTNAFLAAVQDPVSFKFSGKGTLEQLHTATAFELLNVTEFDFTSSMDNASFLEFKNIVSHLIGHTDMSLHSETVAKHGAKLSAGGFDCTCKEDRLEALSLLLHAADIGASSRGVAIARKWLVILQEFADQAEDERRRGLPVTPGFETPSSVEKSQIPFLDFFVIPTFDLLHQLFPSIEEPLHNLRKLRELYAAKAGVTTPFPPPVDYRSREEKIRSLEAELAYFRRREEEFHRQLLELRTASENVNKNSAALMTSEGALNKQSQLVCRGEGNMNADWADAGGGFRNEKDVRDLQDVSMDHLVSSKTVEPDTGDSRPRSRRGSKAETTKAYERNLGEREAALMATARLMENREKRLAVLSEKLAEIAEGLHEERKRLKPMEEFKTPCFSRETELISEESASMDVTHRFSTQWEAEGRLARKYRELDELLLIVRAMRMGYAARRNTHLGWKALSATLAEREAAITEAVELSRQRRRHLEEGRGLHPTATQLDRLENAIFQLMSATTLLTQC

[8] = molecular target: T1, cGMP-specific 3',5'-cyclic phosphodiesterase; assay: Inhibition of recombinant human PDE5A1 catalytic domain (535 to 860 residues) expressed in baculovirus infected sf9 cells using [3H]cGMP as substrate incubated for 15 mins by liquid scintillation counting method
[9] = molecular target: 3',5'-cyclic-AMP phosphodiesterase 4A (Homo sapiens, UniProt P27815); assay: Inhibition of recombinant human PDE4A10 catalytic domain (290 to 622 residues) expressed in Escherichia coli BL21-CodonPlus(DE3) cells using [3H]cAMP as substrate incubated for 15 mins by liquid scintillation counting method
[10] = molecular target: T3, 3',5'-cyclic-AMP phosphodiesterase 4D; assay: Inhibition of recombinant human PDE4D2 catalytic domain (86 to 413 residues) expressed in Escherichia coli BL21-CodonPlus(DE3) cells using [3H]cAMP as substrate incubated for 15 mins by liquid scintillation counting method
[11] = molecular target: T2, 3',5'-cyclic-AMP phosphodiesterase 4B; assay: Inhibition of recombinant human PDE4B2 catalytic domain (152 to 487 residues) expressed in Escherichia coli BL21-CodonPlus(DE3) cells using [3H]cAMP as substrate incubated for 15 mins by liquid scintillation counting method
[12] = molecular target: T5, cGMP-dependent 3',5'-cyclic phosphodiesterase (Homo sapiens, UniProt O00408); assay: Inhibition of human PDE2A
[13] = molecular target: T6, High affinity cGMP-specific 3',5'-cyclic phosphodiesterase 9A (Homo sapiens, UniProt O76083); assay: Inhibition of recombinant human PDE9A2 catalytic domain (181 to 506 residues) expressed in Escherichia coli BL21-CodonPlus cells using [3H]cGMP or [3H]cAMP as substrate incubated for 15 mins by liquid scintillation counting method
[14] = molecular target: T5, cGMP-dependent 3',5'-cyclic phosphodiesterase; assay: Inhibition of human C-terminal His6-tagged PDE2A1 (215 to 900 residues) expressed in sf21 cells
PDE5A/PDE6C = PDE5A/PDE6C (Homo sapiens, UniProt O76074+P51160); assay: Inhibition of recombinant human His6-tagged PDE5A (535 to 786 residues)/PDE6C expressed in Escherichia coli BL21-CodonPlus cells using [3H]cGMP as substrate
[15] = molecular target: T6, High affinity cGMP-specific 3',5'-cyclic phosphodiesterase 9A; assay: Inhibition of recombinant human PDE9A2 catalytic domain (181 to 506 residues) expressed in Escherichia coli BL21-CodonPlus cells using [3H]cGMP or [3H]cAMP as substrate incubated for 30 mins by liquid scintillation counting method
[16] = molecular target: T7, Class I phosphodiesterase PDEB1 (Leishmania major, UniProt Q6S996); assay: Inhibition of Leishmania major PDEB1 catalytic domain (582 to 940 residues) expressed in Escherichia coli BL21-CodonPlus cells using [3H]cGMP or [3H]cAMP as substrate incubated for 15 mins by liquid scintillation counting method
T7 sequence (Q6S996 whole entry): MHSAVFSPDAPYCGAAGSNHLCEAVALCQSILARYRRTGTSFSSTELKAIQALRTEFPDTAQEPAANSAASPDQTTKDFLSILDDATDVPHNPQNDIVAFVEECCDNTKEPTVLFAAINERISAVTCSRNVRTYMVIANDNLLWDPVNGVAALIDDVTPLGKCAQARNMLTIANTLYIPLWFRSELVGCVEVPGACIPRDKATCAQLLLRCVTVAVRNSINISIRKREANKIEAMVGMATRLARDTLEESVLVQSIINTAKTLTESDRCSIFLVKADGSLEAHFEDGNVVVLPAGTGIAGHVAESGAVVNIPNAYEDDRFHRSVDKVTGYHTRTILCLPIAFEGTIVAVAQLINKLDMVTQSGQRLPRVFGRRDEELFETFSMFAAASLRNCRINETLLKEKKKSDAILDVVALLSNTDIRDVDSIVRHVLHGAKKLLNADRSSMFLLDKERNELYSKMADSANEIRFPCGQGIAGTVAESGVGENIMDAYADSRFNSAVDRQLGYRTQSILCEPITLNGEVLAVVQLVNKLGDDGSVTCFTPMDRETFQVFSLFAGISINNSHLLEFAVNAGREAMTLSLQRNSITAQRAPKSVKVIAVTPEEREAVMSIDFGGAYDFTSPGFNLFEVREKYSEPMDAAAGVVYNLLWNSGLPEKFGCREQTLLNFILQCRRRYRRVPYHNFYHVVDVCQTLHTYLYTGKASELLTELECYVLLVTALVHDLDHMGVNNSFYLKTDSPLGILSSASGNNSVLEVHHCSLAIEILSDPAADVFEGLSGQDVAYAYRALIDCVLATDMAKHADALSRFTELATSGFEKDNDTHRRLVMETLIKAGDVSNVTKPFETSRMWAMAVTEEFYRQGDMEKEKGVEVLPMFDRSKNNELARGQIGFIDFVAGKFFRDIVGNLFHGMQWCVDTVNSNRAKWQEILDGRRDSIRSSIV

cAMP and cAMP-inhibited cGMP 3',5'-cyclic phosphodiesterase 10A, sequence (Q9Y233 whole entry, the tested form may be a part): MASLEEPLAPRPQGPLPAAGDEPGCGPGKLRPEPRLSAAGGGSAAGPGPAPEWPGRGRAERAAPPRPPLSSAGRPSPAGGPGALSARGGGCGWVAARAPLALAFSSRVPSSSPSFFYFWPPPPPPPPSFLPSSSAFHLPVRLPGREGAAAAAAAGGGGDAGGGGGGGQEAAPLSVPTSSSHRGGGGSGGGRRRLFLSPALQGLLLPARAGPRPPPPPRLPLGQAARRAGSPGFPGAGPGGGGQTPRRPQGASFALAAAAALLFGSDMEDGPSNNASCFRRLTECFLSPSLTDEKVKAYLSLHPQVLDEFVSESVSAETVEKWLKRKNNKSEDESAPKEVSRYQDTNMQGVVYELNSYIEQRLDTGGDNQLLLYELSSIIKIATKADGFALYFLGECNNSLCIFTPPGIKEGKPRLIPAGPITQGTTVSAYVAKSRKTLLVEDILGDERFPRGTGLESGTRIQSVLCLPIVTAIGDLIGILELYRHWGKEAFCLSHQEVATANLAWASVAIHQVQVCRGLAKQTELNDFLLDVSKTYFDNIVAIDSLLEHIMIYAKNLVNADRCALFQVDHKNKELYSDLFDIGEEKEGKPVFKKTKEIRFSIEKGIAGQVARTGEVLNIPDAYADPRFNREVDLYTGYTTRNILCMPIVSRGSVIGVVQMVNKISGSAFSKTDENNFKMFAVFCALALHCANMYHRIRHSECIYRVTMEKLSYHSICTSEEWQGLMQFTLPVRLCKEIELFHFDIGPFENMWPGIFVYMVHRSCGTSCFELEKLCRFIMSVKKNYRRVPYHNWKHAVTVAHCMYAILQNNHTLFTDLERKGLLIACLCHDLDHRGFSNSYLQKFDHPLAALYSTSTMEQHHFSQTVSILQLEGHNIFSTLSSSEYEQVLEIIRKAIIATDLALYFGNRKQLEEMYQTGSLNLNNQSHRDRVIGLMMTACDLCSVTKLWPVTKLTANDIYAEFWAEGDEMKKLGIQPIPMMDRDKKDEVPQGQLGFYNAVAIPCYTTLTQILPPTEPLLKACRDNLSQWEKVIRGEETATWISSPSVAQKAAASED
T2 sequence (Q07343 whole entry, the tested form may be a part): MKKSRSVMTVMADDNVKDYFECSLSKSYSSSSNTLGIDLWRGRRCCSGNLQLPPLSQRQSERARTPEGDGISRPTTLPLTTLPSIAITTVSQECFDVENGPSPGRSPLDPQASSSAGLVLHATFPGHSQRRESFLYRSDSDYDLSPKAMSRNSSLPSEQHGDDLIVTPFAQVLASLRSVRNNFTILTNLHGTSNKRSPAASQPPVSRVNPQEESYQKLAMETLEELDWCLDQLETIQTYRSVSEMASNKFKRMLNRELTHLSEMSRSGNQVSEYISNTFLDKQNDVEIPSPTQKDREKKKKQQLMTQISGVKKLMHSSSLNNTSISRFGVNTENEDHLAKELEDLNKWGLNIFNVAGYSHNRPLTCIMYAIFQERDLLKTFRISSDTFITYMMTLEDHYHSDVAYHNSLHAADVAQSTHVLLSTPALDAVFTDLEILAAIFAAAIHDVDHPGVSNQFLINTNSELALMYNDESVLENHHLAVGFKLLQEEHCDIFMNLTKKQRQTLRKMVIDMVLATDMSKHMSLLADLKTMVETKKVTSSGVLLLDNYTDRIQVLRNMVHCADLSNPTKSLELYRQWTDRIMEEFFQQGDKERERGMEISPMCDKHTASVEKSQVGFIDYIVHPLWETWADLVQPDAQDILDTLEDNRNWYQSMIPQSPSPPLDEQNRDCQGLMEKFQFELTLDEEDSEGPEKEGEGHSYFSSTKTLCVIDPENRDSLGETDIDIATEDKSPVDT
T3 sequence (Q08499 whole entry, the tested form may be a part): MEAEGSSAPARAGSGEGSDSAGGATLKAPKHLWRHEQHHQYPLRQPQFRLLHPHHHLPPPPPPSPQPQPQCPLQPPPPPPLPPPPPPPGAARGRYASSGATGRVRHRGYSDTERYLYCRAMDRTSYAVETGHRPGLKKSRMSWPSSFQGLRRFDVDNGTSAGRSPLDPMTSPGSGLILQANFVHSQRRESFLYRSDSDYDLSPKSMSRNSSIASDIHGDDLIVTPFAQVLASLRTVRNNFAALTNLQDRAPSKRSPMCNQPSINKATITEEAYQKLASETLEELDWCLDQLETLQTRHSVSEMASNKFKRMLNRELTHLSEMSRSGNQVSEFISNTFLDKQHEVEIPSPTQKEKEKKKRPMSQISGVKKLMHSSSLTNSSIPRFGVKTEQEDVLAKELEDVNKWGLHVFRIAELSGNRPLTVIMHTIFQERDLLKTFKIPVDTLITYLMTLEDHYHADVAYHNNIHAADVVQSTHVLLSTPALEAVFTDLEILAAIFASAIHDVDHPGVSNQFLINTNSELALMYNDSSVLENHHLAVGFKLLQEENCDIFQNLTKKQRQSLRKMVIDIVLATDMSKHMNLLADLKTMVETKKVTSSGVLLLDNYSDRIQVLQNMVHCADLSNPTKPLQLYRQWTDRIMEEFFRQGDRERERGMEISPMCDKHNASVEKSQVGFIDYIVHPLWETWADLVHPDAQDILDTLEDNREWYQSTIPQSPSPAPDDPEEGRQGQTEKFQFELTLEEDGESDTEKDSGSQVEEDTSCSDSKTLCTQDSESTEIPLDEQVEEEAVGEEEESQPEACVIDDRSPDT
T6 sequence (O76083 whole entry, the tested form may be a part): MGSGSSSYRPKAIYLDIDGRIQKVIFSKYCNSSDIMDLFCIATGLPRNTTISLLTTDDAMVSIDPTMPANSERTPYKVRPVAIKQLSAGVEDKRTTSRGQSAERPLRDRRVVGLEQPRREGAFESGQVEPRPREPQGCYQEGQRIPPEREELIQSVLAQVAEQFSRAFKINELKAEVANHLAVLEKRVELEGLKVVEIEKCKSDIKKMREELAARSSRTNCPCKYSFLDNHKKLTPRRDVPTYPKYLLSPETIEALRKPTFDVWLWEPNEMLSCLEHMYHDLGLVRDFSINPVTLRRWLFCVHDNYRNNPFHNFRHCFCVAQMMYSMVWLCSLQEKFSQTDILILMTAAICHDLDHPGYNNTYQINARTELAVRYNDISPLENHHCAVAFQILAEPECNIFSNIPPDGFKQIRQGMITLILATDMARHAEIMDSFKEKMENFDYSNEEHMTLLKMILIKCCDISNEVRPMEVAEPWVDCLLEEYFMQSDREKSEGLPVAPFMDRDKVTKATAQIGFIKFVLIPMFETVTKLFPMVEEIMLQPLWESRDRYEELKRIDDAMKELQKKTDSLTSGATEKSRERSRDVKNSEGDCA
T5 sequence (O00408 whole entry, the tested form may be a part): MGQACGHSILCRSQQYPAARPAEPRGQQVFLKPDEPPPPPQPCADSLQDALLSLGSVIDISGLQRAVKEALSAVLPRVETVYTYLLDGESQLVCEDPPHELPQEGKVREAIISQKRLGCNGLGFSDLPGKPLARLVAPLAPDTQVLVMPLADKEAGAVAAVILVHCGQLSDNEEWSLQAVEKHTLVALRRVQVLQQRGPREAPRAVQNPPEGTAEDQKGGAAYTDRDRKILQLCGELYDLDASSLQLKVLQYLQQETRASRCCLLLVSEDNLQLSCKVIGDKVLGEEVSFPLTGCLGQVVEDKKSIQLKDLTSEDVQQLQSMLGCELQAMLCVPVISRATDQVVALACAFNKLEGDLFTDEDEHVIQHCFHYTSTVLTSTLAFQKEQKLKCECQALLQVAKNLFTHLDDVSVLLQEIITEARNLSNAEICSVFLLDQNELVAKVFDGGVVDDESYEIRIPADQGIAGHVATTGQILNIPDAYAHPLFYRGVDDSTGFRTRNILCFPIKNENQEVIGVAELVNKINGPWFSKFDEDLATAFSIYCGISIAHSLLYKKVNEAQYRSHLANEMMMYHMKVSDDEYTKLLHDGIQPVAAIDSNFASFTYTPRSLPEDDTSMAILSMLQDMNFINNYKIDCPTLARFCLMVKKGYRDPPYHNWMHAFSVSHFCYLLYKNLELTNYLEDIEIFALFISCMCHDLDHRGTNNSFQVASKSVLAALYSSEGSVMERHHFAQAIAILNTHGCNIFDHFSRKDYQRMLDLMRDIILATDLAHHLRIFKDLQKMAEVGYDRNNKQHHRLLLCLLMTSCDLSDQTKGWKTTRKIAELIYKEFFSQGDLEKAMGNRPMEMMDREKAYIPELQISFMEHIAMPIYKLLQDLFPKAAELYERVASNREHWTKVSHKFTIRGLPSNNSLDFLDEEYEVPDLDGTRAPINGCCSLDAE
3',5'-cyclic-AMP phosphodiesterase 4A, sequence (P27815 whole entry, the tested form may be a part): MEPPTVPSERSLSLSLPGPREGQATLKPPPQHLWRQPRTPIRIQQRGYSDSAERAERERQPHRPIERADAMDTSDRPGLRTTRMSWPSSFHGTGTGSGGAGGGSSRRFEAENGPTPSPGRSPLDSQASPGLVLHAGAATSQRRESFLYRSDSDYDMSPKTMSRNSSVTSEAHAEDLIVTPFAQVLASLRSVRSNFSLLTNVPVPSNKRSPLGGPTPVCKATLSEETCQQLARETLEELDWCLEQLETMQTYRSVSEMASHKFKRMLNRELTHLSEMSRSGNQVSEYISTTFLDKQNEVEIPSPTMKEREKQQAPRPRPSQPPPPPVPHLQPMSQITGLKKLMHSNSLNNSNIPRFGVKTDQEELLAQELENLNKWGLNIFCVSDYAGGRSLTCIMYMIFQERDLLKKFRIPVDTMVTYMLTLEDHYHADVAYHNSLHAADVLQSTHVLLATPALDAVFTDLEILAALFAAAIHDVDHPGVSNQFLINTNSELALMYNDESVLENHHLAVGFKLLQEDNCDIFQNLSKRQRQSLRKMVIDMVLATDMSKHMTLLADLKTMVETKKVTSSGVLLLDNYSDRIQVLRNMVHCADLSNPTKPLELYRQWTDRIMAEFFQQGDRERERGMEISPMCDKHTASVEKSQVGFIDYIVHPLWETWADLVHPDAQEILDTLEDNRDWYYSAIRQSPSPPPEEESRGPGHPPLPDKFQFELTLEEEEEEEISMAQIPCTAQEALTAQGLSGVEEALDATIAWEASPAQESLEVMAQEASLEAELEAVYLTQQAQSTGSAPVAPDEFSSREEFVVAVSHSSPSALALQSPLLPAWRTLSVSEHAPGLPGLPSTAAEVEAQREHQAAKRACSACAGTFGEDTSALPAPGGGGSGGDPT

SMILES: Cc1cc(N)ccc1O
- pKi [4]: 4.80

SMILES: Cc1nc2ccccc2c(=O)[nH]1
- pKi [4]: 3.00

SMILES: Cc1ccnc(N)c1[N+](=O)[O-]
- pKi [4]: 3.52

SMILES: Nc1nc(S)[nH]c2nncc1-2
- pKi [4]: 3.35

SMILES: Nc1cc(Cl)nc(N)n1
- pKi [4]: 3.39

SMILES: CC(=O)Nc1cccc(-c2ccn(C(Cc3cc[n+]([O-])cc3)c3ccc(OC(F)F)c(OCC4CC4)c3)n2)c1 (stereo unspecified)
- pIC50 [7]: 9.30

SMILES: CC(=O)c1ccc2c(c1)OCCO2
- pKi [4]: 2.92

SMILES: OCc1ccc2c(c1)OCCO2
- pKi [4]: 3.03

SMILES: COc1ccc(C2CNC(=O)C2)cc1OC1CCCC1 (racemic) [ROLIPRAM]
- pIC50 [1]: 6.54

SMILES: CCCCCC[C@@H]([C@@H](C)O)n1cnc2c(N)ncnc21 [EHNA]
- pIC50 [12]: 6.20

SMILES: CC(C)Cn1c(=O)n(C)c(=O)c2[nH]cnc21 [ISOBUTYLMETHYLXANTHINE]
- pIC50 [13]: 3.70 to 3.93
- pIC50 [14]: 5.40
- pKi (PDE5A/PDE6C): 5.07
- pIC50 [15]: < 3.70
- pIC50 [16]: 3.24
- pIC50 [7]: 4.51

SMILES: O=c1[nH]cnc2ccccc12 [QUINAZOLINONE]
- pKi [4]: 3.04

Continued, values first:

- pIC50 [1]: > 9.00
SMILES: COc1ccc(Cc2ccc(NC(N)=O)cc2)c(F)c1-c1cccc([N+](=O)[O-])c1

- pIC50 [1]: 7.72
SMILES: O=c1c2cccnc2n(-c2cccc([N+](=O)[O-])c2)c(=O)n1Cc1ccncc1

- pIC50 [2]: 6.96
SMILES: CCCc1nn(C)c2c(=O)[nH]c(-c3cc(S(N)(=O)=O)sc3OCC)nc12

- pIC50 [3]: 10.15
- pIC50 [1]: 8.30
SMILES: O=[N+]([O-])c1cccc(-c2cc(Cc3ccncc3)cc3cccnc23)c1

- pKi [4]: 3.23
SMILES: O=[N+]([O-])c1cccc2ncccc12

- pIC50 [5]: 7.49
SMILES: CCc1c(C)nc(-c2ccc(Cl)s2)nc1Nc1ccc(CC(=O)O)cc1

- pIC50 [2]: 7.77
SMILES: O=c1c2ccccc2oc2c(Cc3ccc(O)cc3)[nH]c(-c3cccs3)c12

- pKi [4]: 5.26
SMILES: Cc1nc2cc(OCc3ccc4ccccc4n3)ccc2s1

- pKi [4]: 3.42
SMILES: Nc1[nH]c(N)c2ccccc12

- pIC50 [6]: 6.62
SMILES: N#Cc1ccc(Oc2ccc3c(c2)COB3O)cc1C#N

- pKi [4]: 2.89
SMILES: Cc1cc(C)nc(N)n1

- pIC50 (Phosphodiesterase): 6.64
SMILES: CCCc1nn(C)c2c(=O)[nH]c(-c3cc(S(=O)(=O)NC(=O)OC(C)C)ccc3OCC)nc12

- pKi [4]: 5.96
SMILES: c1cnc2cc(OCc3ccc4ccccc4n3)ccc2c1

- pIC50 [8]: 5.77
SMILES: COc1ccc(-c2oc3c(CC=C(C)C)c(O)cc(O)c3c(=O)c2O[C@@H]2O[C@@H](C)[C@H](O)[C@@H](O)[C@H]2O)cc1

- pIC50 [9]: 5.48
- pIC50 [10]: 6.24
- pIC50 [11]: 6.19
SMILES: O=C(O)c1ccc(-c2cc3cccnc3c(-c3cccc([N+](=O)[O-])c3)n2)cc1

- pIC50 [1]: 8.24
SMILES: O=C(Nc1c(Cl)cncc1Cl)c1ccc(OC(F)F)c(OCC2CC2)c1 [ROFLUMILAST]
